This note sets out measurements from US8247612B2, “Organic sulfur compound and its use for controlling harmful arthropod” (Sumitomo Chemical Company, Limited, priority 2007, dated 2012).

Holding throughout (format): in vivo
The subject of experiment [1] is Haemaphysalis longicornis. Description: Test Example 5: treated filter paper pouch, death rate of ticks. The following applies: filter paper treated with 100 mg/m^2; non-blood-sucking nymphal ticks, 10 ticks/group; after 2 days. The procedure: Five milligrams of any one of the present compounds (3), (10), (14), (15), (16) and (17) was dissolved in 10 mL of acetone. One milliliter of the acetone solution was uniformly applied on one side of a filter paper (TOYO No. 2; 5×10 cm), so that the filter paper was treated with 100 mg/m^2 of the present compound. After drying, the filter paper was folded in two and its edges were clipped to make a pouch. Non-blood-sucking nymphal ticks (Haemaphysalis longicornis, 10 ticks/group) were put into the pouch, and the pouch was sealed with clips. After 2 days, the number of surviving ticks was examined and the death rate was calculated. As a result, in treatments with the present compounds (3), (10), (14), (15), (16) and (17), the death rate of the tick was 90%.

For a further experiment, the system named is Culex pipiens pallens. Description: Test Example 4: larvae in treated water, death rate of Culex pipiens pallens. Conditions: 24 h, active ingredient concentration 3.5 ppm in water, 20 last-instar larvae, after one day. The procedure: Preparations of the present compounds (1), (2), (3), (4), (5), (6), (9), (10), (11), (12), (14), (15), (16), (17), (19), (20), (22), (23), (24), (26), (27), (28), (29), (30) and (31) obtained according to Formulation Example 36 were diluted so that the active ingredient concentration was 500 ppm to obtain test solutions. To 100 mL of ion-exchanged water, 0.7 ml of the test solution was added (active ingredient concentration: 3.5 ppm). Into the solution, 20 last-instar larvae of Culex pipiens pallens were released. After one day, the number of surviving Culex pipiens pallens was examined and the death rate of the pest was calculated. As a result, in treatments with the present compounds (1), (2), (3), (4), (5), (6), (9), (10), (11), (12), (14), (15), (16), (17), (19), (20), (22), (23), (24), (26), (27), (28), (29), (30) and (31), the death rate of the pest was 90% or more.

The subject of another experiment is Musca domestica. Description: Test Example 2: treated filter paper with sucrose bait, death rate of Musca domestica. The following applies: 500 ppm test solution, 0.7 ml on filter paper, 10 female imagoes, after 24 hours. The procedure:
Preparations of the present compounds (2), (3), (5), (6), (9), (10), (11), (12), (13), (14), (15), (16), (17), (19), (20), (24), (25), (26), (28), (29), (30) and (31) obtained according to Formulation Example 36 were diluted so that the active ingredient concentration was 500 ppm to obtain test solutions.
A filter paper having a diameter of 5.5 cm was spread on the bottom of a polyethylene cup having a diameter of 5.5 cm and 0.7 ml of the test solution was added dropwise onto the filter paper. As a bait 30 mg of sucrose was uniformly placed on the filter paper. Into the polyethylene cup, 10 female imagoes of Musca domestica were released and the cup was sealed with a lid. After 24 hours, the number of surviving Musca domestica was examined and the death rate of the pest was calculated.
As a result, in treatments with the present compounds (2), (3), (5), (6), (9), (10), (11), (12), (13), (14), (15), (16), (17), (19), (20), (24), (25), (26), (28), (29), (30) and (31), the death rate of the pest was 70% or more.

Another experiment deals with Blattalla germanica. Description: Test Example 3: treated filter paper with sucrose bait, death rate of Blattalla germanica. The following applies: 144 h; 500 ppm test solution, 0.7 ml on filter paper; 2 male imagoes; after 6 days. The procedure: Preparations of the present compounds (2), (3), (5), (6), (10), (11), (12), (14), (15), (16), (17), (19), (20), (24), (25), (26), (29), (30) and (31) obtained according to Formulation Example 36 were diluted so that the active ingredient concentration was 500 ppm to obtain test solutions.
A filter paper having a diameter of 5.5 cm was spread on the bottom of a polyethylene cup having a diameter of 5.5 cm and 0.7 ml of the test solution was added dropwise onto the filter paper. As a bait 30 mg of sucrose was uniformly placed on the filter paper. Into the polyethylene cup, 2 male imagoes of Blattalla germanica were released and the cup was sealed with a lid. After 6 days, the number of surviving Blattalla germanica was examined and the death rate of the pest was calculated.
As a result, in treatments with the present compounds (2), (3), (5), (6), (10), (11), (12), (14), (15), (16), (17), (19), (20), (24), (25), (26), (29), (30) and (31), the death rate of the pest was 100%.

Turning to `CC(CCC(Cl)(C(N)=O)S(=O)(=O)CCC(F)(F)F)C(F)(F)F` (stereo not drawn) [present compound (3), 2-chloro-6,6,6-trifluoro-5-methyl-2-(3,3,3-trifluoropropylsulfonyl)hexanamide], the “death rate of the tick” value in experiment [1] came out at 90%. Further, in the experiment with Culex pipiens pallens, the pest or weed control at 3.5 ppm was no less than 90%. The pest or weed control at 500 ppm in the experiment on Musca domestica was no less than 70%; in the experiment on Blattalla germanica it was 100%.

As for `CC(CCC(C#N)S(=O)(=O)CCC(F)(F)F)C(F)(F)F` (stereo not drawn) [present compound (10), 6,6,6-trifluoro-5-methyl-2-(3,3,3-trifluoropropylsulfonyl)hexanenitrile], the “death rate of the tick” value in experiment [1] amounted to 90%. The pest or weed control at 3.5 ppm in the experiment with Culex pipiens pallens was no less than 90%. For the same compound, the figures for the pest or weed control at 500 ppm in the experiment on Musca domestica and in the experiment on Blattalla germanica were no less than 70% and 100%, respectively.

`CCC(CCC(C#N)S(=O)(=O)CCC(F)(F)F)C(F)(F)F` (stereo not drawn) [present compound (14), 5-(trifluoromethyl)-2-(3,3,3-trifluoropropylsulfonyl)heptanenitrile]: the “death rate of the tick” value in experiment [1] was 90%. In addition, the pest or weed control at 3.5 ppm with Culex pipiens pallens was no less than 90%. Also, the pest or weed control at 500 ppm with Musca domestica was no less than 70%; in the experiment on Blattalla germanica it was 100%.

For the compound `CCC(CCC(F)(C#N)S(=O)(=O)CCC(F)(F)F)C(F)(F)F` (stereo not drawn) [present compound (15), 2-fluoro-5-(trifluoromethyl)-2-(3,3,3-trifluoropropylsulfonyl)heptanenitrile], in experiment [1], the “death rate of the tick” value is recorded as 90%. In the experiment with Culex pipiens pallens, this compound showed a pest or weed control at 3.5 ppm of no less than 90%. Further, the pest or weed control at 500 ppm in the experiment on Musca domestica is no less than 70%; in the experiment on Blattalla germanica, 100%.

As to `CCC(CCC(Cl)(C#N)S(=O)(=O)CCC(F)(F)F)C(F)(F)F` (stereo not drawn) [present compound (16), 2-chloro-5-(trifluoromethyl)-2-(3,3,3-trifluoropropylsulfonyl)heptanenitrile], in experiment [1], the “death rate of the tick” value was found to be 90%. The pest or weed control at 3.5 ppm with Culex pipiens pallens was no less than 90%. Also, the results for the pest or weed control at 500 ppm with Musca domestica and in the experiment on Blattalla germanica were no less than 70% and 100%, respectively.

Turning to `CCC(CCC(C)(C#N)S(=O)(=O)CCC(F)(F)F)C(F)(F)F` (stereo not drawn) [present compound (17), 2-methyl-5-(trifluoromethyl)-2-(3,3,3-trifluoropropylsulfonyl)heptanenitrile], in experiment [1], the “death rate of the tick” value turned out to be 90%. In the experiment with Culex pipiens pallens, this compound came in with a pest or weed control at 3.5 ppm of no less than 90%. Further, the pest or weed control at 500 ppm is no less than 70% in the experiment with Musca domestica and 100% in the experiment with Blattalla germanica.

In general, pest or weed control refers to the degree to which the test organism was suppressed or injured, in per cent. Low values mean a weak effect, high ones a strong effect.
